The source of these data is US9784753B2, “Biological system to test in vitro if a substance is immune reactive” (priority 1996, dated 2017).

Assay [1] has as its system frozen whole blood stimulated with LPS. Briefly: Modulation of LPS-stimulated IL-1 release in frozen whole blood. Type of assay: cell-based, human. The following applies: depending on amount of substance administered; FIGS. 2 and 3.
Method: Citrated blood from healthy donors was mixed with 10% dimethylsulfoxide (Merck, Darmstadt) immediately after it was drawn. Aliquots of 100 microliters were distributed in 2 milliliter reaction vessels (Eppendorf, Hamburg) and transferred to a −70° C. cold box in a commercial freezing system (a person, Nalgene). Thawing was done in a thermoshaker (Eppendorf, Hamburg) at 37° C. Immediately after thawing, 900 microliters of RPMI 1640 (Gibco, Eggenstein), warmed to 37° C., was added. Then the test substances, such as dilutions of a pyrogen, in this case, lipopolysaccharide of Salmonella abortus equi (Sigma, Deisenhofen) were added. After a four-hour incubation at 37° C., for example, in an incubator (Heraeus, Fellbach) with 5% carbon dioxide the incubated samples are shaken and centrifuged. Endogenous pyrogens, IL-1β in this case, are determined in the cell-free supernatant, after freezing, if desired. […] IL-1β was determined by ELISA (enzyme-linked immunosorbent assay) from antibodies from the company Pharmingen (Hamburg).
Assay [2] has as its system cryopreserved blood from four healthy donors. The assay is described as follows: IL-1β release in thawed cryopreserved whole blood on contact with pyrogen (ELISA). Type of assay: cell-based, human. The following applies: thawed deep-frozen citrated blood with 10% dimethylsulfoxide, diluted with RPMI 1640, four-hour incubation at 37° C., FIG. 1. Here is the method: Citrated blood from healthy donors was mixed with 10% dimethylsulfoxide (Merck, Darmstadt) immediately after it was drawn. Aliquots of 100 microliters were distributed in 2 milliliter reaction vessels (Eppendorf, Hamburg) and transferred to a −70° C. cold box in a commercial freezing system (Mr. Freezy, Nalgene). Thawing was done in a thermoshaker (Eppendorf, Hamburg) at 37° C. Immediately after thawing, 900 microliters of RPMI 1640 (Gibco, Eggenstein), warmed to 37° C., was added. Then the test substances, such as dilutions of a pyrogen, in this case, lipopolysaccharide of Salmonella abortus equi (Sigma, Deisenhofen) were added. After a four-hour incubation at 37° C., for example, in an incubator (Heraeus, Fellbach) with 5% carbon dioxide the incubated samples are shaken and centrifuged. Endogenous pyrogens, IL-1β in this case, are determined in the cell-free supernatant, after freezing, if desired. […] IL-1β was determined by ELISA (enzyme-linked immunosorbent assay) from antibodies from the company Pharmingen (Hamburg).
(In general: In an ELISA, binding on a coated surface is turned into a signal by an enzyme label.)

As for `Cn1cnc([N+](=O)[O-])c1Sc1ncnc2[nH]cnc12` [azathioprin], the “release of IL-1 in frozen whole blood stimulated with LPS” value in assay [1] is on record as “dependence of release of IL-1”.

Take “lipopolysaccharide of Salmonella abortus equi”: in assay [2], the “release of endogenous pyrogens (IL-1β)” value was “release of endogenous pyrogens in the presence of minimal amounts of pyrogens”.
